US9695155B2, “Herbicidal substituted pyrimidinyloxy benzene compounds” (E. I. DU PONT DE NEMOURS AND COMPANY, priority 2013, dated 2017)

Tests used:
ducksalad = experiment: Test C flooded paddy test; type: in vivo, Heteranthera limosa; settings: Flood, scale 0 to 100 (0 no effect, 100 complete control), 13 to 15 days
Summary of the method: (§1)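 Pots were flooded to 3 cm above the soil surface at treatment, compound applied directly to the paddy water, and that depth held throughout. Plants were kept in a greenhouse for 13 to 15 days, then visually rated against untreated controls.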

barnyardgrass = experiment: Test C flooded paddy test; type: in vivo, Echinochloa crus-galli; settings: Flood, scale 0 to 100 (0 no effect, 100 complete control), 13 to 15 days
Summary of the method: as §1

galium = experiment: Test A postemergence; type: in vivo, Galium aparine
Summary of the method: (§2)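 Greenhouse pot test, loam/sand soil. Formulation: non-phytotoxic solvent mix plus surfactant. Pre: directed spray onto soil after sowing. Post: plants at 1–2 leaf, 2–10 cm. Rated visually vs untreated controls at ~10 d, 0 (no effect) to 100 (complete control).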

ragweed = experiment: Test A preemergence; type: in vivo, Ambrosia elatior
Summary of the method: as §2

Italian ryegrass = experiment: Test A postemergence; type: in vivo, Lolium multiflorum
Summary of the method: as §2

[1] = 125 g ai/ha, 0 to 100 scale where 0 is no effect and 100 is complete control
[2] = 500 g ai/ha, 0 to 100 scale where 0 is no effect and 100 is complete control
[3] = 500 g ai/ha, 0 to 100 scale, 0 no effect, 100 complete control, approx. 10 days
[4] = 31 g ai/ha, 0 to 100 scale, 0 no effect, 100 complete control
[5] = 1000 g ai/ha, 0 to 100 scale, 0 no effect, 100 complete control
[6] = 1000 g ai/ha, 0 to 100 scale, 0 no effect, 100 complete control, approx. 10 days
[7] = 125 g ai/ha, 0 to 100 scale, 0 no effect, 100 complete control
[8] = 31 g ai/ha, 0 to 100 scale where 0 is no effect and 100 is complete control, visual, approximately 10 days

Row | Compound | Plant response rating, Ducksalad (ducksalad; 31 g ai/ha) | Plant response rating, Ducksalad (ducksalad; 62 g ai/ha) | Plant response rating, Ducksalad (ducksalad; 125 g ai/ha) | Plant response rating, Ducksalad (ducksalad; 250 g ai/ha) | Plant response rating, Barnyardgrass (barnyardgrass; 31 g ai/ha) | Plant response rating, Barnyardgrass (barnyardgrass; 62 g ai/ha) | Plant response rating, Barnyardgrass (barnyardgrass; 125 g ai/ha) | Plant response rating, Barnyardgrass (barnyardgrass; 250 g ai/ha) | Plant response rating, Galium (galium; [2]) | Plant response rating, Ragweed (ragweed; [1]) | Plant response rating, Ryegrass, Italian (Italian ryegrass; [2]) | Galium plant response rating (galium; [1]) | Ragweed plant response rating (ragweed; [2]) | Ryegrass, Italian plant response rating (Italian ryegrass; [1]) | other results
1 | N#Cc1cccc(Oc2ncc(F)cn2)c1-n1cc(Br)cn1 [Compound 62] | 30 | 70 | 85 | 100 | 0 | 0 | 0 | 40 |  |  |  |  |  |  | 
2 | Clc1cnc(Oc2cccc(Br)c2-n2cc(Br)cn2)nc1 [Compound 65] | 0 | 30 | 85 | 85 | 0 | 0 | 0 | 0 |  |  |  |  |  |  | 
3 | FCc1cccc(Oc2ncc(Cl)cn2)c1-n1cc(Br)cn1 [Compound 83] |  |  |  |  |  |  |  |  | 100 | 20 | 80 |  |  |  | Plant response rating, Galium (galium; [1]): 100; Ragweed plant response rating (ragweed; [3]): 50; Plant response rating, Ryegrass, Italian (Italian ryegrass; [1]): 50
4 | CCOc1cn(-c2c(Br)cccc2Oc2ncc(Cl)cn2)nn1 [Compound 84] |  |  |  |  |  |  |  |  | 100 | 10 | 80 |  |  |  | Plant response rating, Galium (galium; [1]): 100; Ragweed plant response rating (ragweed; [3]): 40; Plant response rating, Ryegrass, Italian (Italian ryegrass; [1]): 50
5 | FCc1cccc(Oc2ncc(F)cn2)c1-n1cc(C(F)(F)F)cn1 [Compound 118] |  |  |  |  |  |  |  |  |  | 90 |  |  |  |  | Plant response rating, Galium (galium; [4]): 70; Plant response rating, Galium (galium; [1]): 90; Ragweed plant response rating (0 to 100 scale) (ragweed; 31 g ai/ha): 50; Plant response rating, Ryegrass, Italian (Italian ryegrass; [4]): 20
6 | FCc1cccc(Oc2ncc(Br)cn2)c1-n1cc(C(F)(F)F)cn1 [Compound 120] | 0 | 40 | 80 | 90 | 0 | 0 | 60 | 85 |  | 0 |  |  |  |  | Plant response rating, Galium (galium; [4]): 90; Plant response rating, Galium (galium; [1]): 100; Ragweed plant response rating (0 to 100 scale) (ragweed; 31 g ai/ha): 0; Plant response rating, Ryegrass, Italian (Italian ryegrass; [4]): 0
7 | Clc1cnc(Oc2cccc(Br)c2-n2cc(Br)nn2)nc1 [Compound 129] |  |  |  |  |  |  |  |  | 100 | 30 | 90 | 100 | 80 | 50 | 
8 | FC(F)(F)Sc1cnn(-c2ccccc2Oc2ncc(Cl)cn2)c1 [Compound 132, 5-chloro-2-[2-[4-(trifluoromethylthio)-1H-pyrazol-1-yl]phenoxy]pyrimidine] |  |  |  |  |  |  |  |  | 100 | 0 | 60 | 100 | 10 | 10 | 
9 | Cc1cnc(Oc2cccc(C#N)c2-n2cc(I)cn2)nc1 [Compound 136] |  |  |  |  |  |  |  |  | 100 | 80 | 90 | 80 | 100 | 30 | 
10 | COc1cnn(-c2c(C#N)cccc2Oc2ncc(Cl)cn2)c1 [Compound 137] |  |  |  |  |  |  |  |  | 100 | 30 | 80 | 70 | 60 | 20 | 
11 | CCCOc1cnn(-c2c(C#N)cccc2Oc2ncc(Cl)cn2)c1 [Compound 150] | 0 | 40 | 70 | 75 | 0 | 0 | 0 | 0 | 100 | 30 | 100 | 90 | 70 | 40 | 
12 | FCc1cn(-c2c(F)cccc2Oc2ncc(Cl)cn2)nn1 [Compound 154] |  |  |  |  |  |  |  |  |  |  |  |  |  |  | Plant response rating, Galium (galium; [5]): 100; Ragweed plant response rating (ragweed; [6]): 100; Plant response rating, Ryegrass, Italian (Italian ryegrass; [5]): 90
13 | Fc1cccc(Oc2ncc(Cl)cn2)c1-n1cc(C2CC2)nn1 [Compound 155] |  |  |  |  |  |  |  |  |  |  |  |  |  |  | Plant response rating, Galium (galium; [5]): 100; Ragweed plant response rating (ragweed; [6]): 90; Plant response rating, Ryegrass, Italian (Italian ryegrass; [5]): 100
14 | N#Cc1cnn(-c2c(Oc3ncc(Cl)cn3)cccc2C(F)F)c1 [Compound 236] | 0 | 40 | 80 | 90 | 0 | 0 | 0 | 20 |  |  |  |  |  |  | 
15 | N#Cc1cccc(Oc2ncc(Cl)cn2)c1-n1cnc(C(F)(F)F)c1 [Compound 252, 3-[(5-chloro-2-pyrimidinyl)oxy]-2-[4-(trifluoromethyl)-1H-imidazol-1-yl]benzonitrile] |  |  |  |  |  |  |  |  | 100 |  | 70 |  | 100 |  | Plant response rating, Galium (galium; [4]): 60; Plant response rating, Galium (galium; [7]): 90; Plant response rating, Ragweed (ragweed; [8]): 20; Ragweed plant response rating (0 to 100 scale) (ragweed; 125 g ai/ha): 70; Plant response rating, Ryegrass, Italian (Italian ryegrass; [4]): 0; Plant response rating, Ryegrass, Italian (Italian ryegrass; [7]): 40
16 | Fc1cccc(Oc2ncc(Cl)cn2)c1-n1cc(OCC(F)(F)F)cn1 [Compound 270] | 20 | 60 | 80 | 95 | 0 | 30 | 45 | 60 |  |  |  |  |  |  | Plant response rating, Galium (galium; [4]): 60; Plant response rating, Galium (galium; [7]): 90; Plant response rating, Ragweed (ragweed; [8]): 0; Ragweed plant response rating (0 to 100 scale) (ragweed; 125 g ai/ha): 20; Plant response rating, Ryegrass, Italian (Italian ryegrass; [4]): 0; Plant response rating, Ryegrass, Italian (Italian ryegrass; [7]): 30
